{"source": "paper PMC3954439", "about": "(Molecular cancer therapeutics, 2014)", "target": "T1, ABCC10 (MRP7) (Homo sapiens, UniProt Q5T3U5)", "T1 sequence (Q5T3U5 1-1492)": "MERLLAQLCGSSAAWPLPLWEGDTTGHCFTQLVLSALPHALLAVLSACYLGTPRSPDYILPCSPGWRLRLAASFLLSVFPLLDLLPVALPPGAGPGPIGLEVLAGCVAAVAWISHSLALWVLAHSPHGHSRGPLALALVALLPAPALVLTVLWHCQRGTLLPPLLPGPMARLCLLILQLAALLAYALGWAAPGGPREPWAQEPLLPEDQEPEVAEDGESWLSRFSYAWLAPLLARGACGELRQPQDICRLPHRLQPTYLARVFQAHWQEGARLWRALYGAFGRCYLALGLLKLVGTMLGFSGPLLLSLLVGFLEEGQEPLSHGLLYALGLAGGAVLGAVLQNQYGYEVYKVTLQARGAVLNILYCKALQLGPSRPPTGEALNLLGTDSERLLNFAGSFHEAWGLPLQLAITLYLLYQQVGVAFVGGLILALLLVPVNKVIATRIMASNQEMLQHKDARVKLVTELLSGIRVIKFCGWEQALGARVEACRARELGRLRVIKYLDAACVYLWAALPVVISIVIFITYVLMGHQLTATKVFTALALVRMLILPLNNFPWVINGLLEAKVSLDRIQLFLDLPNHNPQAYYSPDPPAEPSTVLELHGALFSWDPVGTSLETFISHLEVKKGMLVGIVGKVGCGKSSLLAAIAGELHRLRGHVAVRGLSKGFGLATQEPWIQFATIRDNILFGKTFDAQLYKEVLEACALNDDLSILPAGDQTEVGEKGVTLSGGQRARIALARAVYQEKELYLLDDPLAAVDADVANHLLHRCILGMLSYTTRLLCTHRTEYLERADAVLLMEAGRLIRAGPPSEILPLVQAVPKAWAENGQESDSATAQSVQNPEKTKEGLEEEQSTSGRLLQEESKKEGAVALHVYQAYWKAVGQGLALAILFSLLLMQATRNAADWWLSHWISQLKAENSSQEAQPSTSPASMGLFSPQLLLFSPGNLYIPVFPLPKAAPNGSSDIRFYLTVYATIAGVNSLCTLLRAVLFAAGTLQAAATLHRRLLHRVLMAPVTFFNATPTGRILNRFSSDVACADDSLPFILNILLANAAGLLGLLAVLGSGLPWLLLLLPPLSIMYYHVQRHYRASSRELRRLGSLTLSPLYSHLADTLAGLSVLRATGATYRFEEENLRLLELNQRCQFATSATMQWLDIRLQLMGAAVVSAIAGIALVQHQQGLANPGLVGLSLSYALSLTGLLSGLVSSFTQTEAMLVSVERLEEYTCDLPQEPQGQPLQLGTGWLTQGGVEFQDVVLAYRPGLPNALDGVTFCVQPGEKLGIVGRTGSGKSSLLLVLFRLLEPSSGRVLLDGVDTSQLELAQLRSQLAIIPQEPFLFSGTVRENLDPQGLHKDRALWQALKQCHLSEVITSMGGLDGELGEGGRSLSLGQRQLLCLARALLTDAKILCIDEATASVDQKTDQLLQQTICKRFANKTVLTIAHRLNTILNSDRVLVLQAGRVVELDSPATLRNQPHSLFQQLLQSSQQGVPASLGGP", "assay": "[3H]-paclitaxel efflux, HEK293/ABCC10 vs HEK293/pcDNA3.[…] cells", "format": "cell-based", "details": "labelled compound; 0.01 uM; 37 C; whole cells"}
{"smiles": "CC(=O)O[C@H]1C(=O)[C@@]2(C)[C@H]([C@H](OC(=O)c3ccccc3)[C@]3(O)C[C@H](OC(=O)[C@H](O)[C@@H](NC(=O)c4ccccc4)c4ccccc4)C(C)=C1C3(C)C)[C@]1(OC(C)=O)CO[C@@H]1C[C@@H]2O", "note": "[[3H]-paclitaxel]", "values": [{"measurement": "[3H]-paclitaxel efflux, HEK293/ABCC10 vs HEK293/pcDNA3.1 cells", "value": "due to active efflux of the [^3H]-paclitaxel via ABCC10"}]}
